The results in this text go back to patent US11919907B2, “Deuterated JAK inhibitor and uses thereof” (Sun Pharmaceutical Industries, Inc., priority 2020, dated 2024).

Like-named read-outs stand apart in the source and are kept apart here.

Data set [1] deals with T1, kinase domain of human recombinant TYK2 (Homo sapiens, UniProt P29597).
T1 construct: using the kinase domains of human recombinant JAK1, JAK2, JAK3 and TYK2
T1 sequence (P29597 897-1176 limits assumed): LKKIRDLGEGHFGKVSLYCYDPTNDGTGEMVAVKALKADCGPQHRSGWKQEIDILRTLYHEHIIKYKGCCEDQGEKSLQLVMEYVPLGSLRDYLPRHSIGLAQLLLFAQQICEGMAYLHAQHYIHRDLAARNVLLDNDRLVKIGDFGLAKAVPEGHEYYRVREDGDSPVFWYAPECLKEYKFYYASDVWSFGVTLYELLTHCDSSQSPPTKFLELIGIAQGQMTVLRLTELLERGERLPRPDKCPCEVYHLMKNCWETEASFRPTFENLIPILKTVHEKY
Nature of the data set: JAK enzyme biochemical assay (Eurofins CEREP), TYK2. Particulars: ATP at Km, 100 nM substrate peptide, 60 minutes, duplicate. How it is done:
(§1) JAK enzyme biochemical assays were performed at Eurofins CEREP, France using the kinase domains of human recombinant JAK1, JAK2, JAK3 and TYK2. Each enzyme reaction was carried out with Compound 10 (supplied by Concert Pharmaceuticals) or control, JAK enzyme, 100 nM substrate peptide (LANCE® Ultra U-light JAK-1 peptide) and adenosine triphosphate (ATP; concentration at Km) for 60 minutes. Test compounds were dissolved in DMSO and tested in duplicate. It can be seen that Compound 10 had significant potency for inhibition of JAK enzymes.

In data set [2] the target is T2, kinase domain of human recombinant JAK3 (Homo sapiens, UniProt P52333).
T2 construct: using the kinase domains of human recombinant JAK1, JAK2, JAK3 and TYK2
Description: JAK enzyme biochemical assay (Eurofins CEREP), JAK3. The following applies: ATP at Km, 100 nM substrate peptide, 60 minutes, duplicate. How it is done:
as §1

The target in data set [3] is T3, kinase domain of human recombinant JAK2 (Homo sapiens, UniProt O60674).
T3 construct: using the kinase domains of human recombinant JAK1, JAK2, JAK3 and TYK2
Nature of the data set: JAK enzyme biochemical assay (Eurofins CEREP), JAK2. Particulars: ATP at Km, 100 nM substrate peptide, 60 minutes, duplicate. How it is done: as §1

Data set [4] in a line: Metabolic stability using human liver microsomes. In kind it is in vitro ADME. Particulars: for half-life at 0.25 μM: human. How it is done: Materials: Human liver microsomes (20 mg/mL) were obtained from Xenotech, LLC (Lenexa, Kans.). β-nicotinamide adenine dinucleotide phosphate, reduced form (NADPH), magnesium chloride (MgCl2), and dimethyl sulfoxide (DMSO) were purchased from Sigma-Aldrich. Compound 10 and non-deuterated Compound 50 as test compounds were supplied by Concert Pharmaceuticals:
Determination of Metabolic Stability: 7.5 mM stock solutions of test compounds were prepared in DMSO. The 7.5 mM stock solutions were diluted to 12.5 μM in acetonitrile (ACN). The human liver microsomes were diluted in 0.1 M potassium phosphate buffer, pH 7.4, containing 3 mM MgCl2. The diluted microsomes were added to wells of a 96-well deep-well polypropylene plate in triplicate. A 10 μL aliquot of the 12.5 μM test compound was added to the microsomes and the mixture was pre-warmed for 10 minutes. Reactions were initiated by addition of pre-warmed NADPH solution. The final reaction volume was 0.5 mL and contained […] human liver microsomes, 0.25 μM test compound, and 2 mM NADPH in 0.1 M potassium phosphate buffer, pH 7.4, and 3 mM MgCl2. The reaction mixtures were incubated at 37° C., and 50 μL aliquots were removed at 0, 10, 20, 30, 45, and 60 minutes and added to shallow-well 96-well plates which contained 50 μL of ice-cold ACN with internal standard to stop the reactions. The plates were stored at 4° C. for 20 minutes after which 100 μL of water was added to the wells of the plate before centrifugation to pellet precipitated proteins. Supernatants were transferred to another 96-well plate and analyzed for amounts of parent remaining by LC-MS/MS using an Applied Bio-systems mass spectrometer.
Data analysis: The in vitro t1/2s for test compounds were calculated from the slopes of the linear regression of % parent remaining (ln) vs incubation time relationship. in vitro t1/2=0.693/k k=−[slope of linear regression of % parent remaining(ln) vs incubation time] Data analysis was performed using Microsoft Excel Software.

Data set [5] deals with T4, kinase domain of human recombinant JAK1 (Homo sapiens, UniProt P23458).
T4 construct: using the kinase domains of human recombinant JAK1, JAK2, JAK3 and TYK2
Nature of the data set: JAK enzyme biochemical assay (Eurofins CEREP), JAK1. Particulars: ATP at Km, 100 nM substrate peptide, 60 minutes, duplicate. How it is done: as §1

Setting [6] is: pH 7.4, 5 mg/mL human liver microsomes, 0.25 μM test compound, 2 mM NADPH, 37° C., experiment 2498, read-out: t1/2 EXP# 2498.
The mark [7] stands for this setting: pH 7.4, 5 mg/mL human liver microsomes, 0.25 μM test compound, 2 mM NADPH, 37° C., experiment 2500, read-out: t1/2 EXP# 2500.
Setting [8] is: pH 7.4, 5 mg/mL human liver microsomes, 0.25 μM test compound, 2 mM NADPH, 37° C., experiment 2501, read-out: t1/2 EXP# 2501.
The mark [9] stands for this setting: pH 7.4, human liver microsomes, average of EXP# 2498, 2500, 2501, read-out: t1/2 Average.

T3 sequence (O60674 849-1124 limits assumed): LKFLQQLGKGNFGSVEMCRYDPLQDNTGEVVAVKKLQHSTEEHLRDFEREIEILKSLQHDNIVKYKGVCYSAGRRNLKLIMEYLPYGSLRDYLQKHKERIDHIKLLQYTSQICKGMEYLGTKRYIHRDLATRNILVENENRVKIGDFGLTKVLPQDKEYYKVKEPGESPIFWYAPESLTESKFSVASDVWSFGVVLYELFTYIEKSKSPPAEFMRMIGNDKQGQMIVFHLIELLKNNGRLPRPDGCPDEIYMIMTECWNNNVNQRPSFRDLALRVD
T2 sequence (P52333 822-1111 limits assumed): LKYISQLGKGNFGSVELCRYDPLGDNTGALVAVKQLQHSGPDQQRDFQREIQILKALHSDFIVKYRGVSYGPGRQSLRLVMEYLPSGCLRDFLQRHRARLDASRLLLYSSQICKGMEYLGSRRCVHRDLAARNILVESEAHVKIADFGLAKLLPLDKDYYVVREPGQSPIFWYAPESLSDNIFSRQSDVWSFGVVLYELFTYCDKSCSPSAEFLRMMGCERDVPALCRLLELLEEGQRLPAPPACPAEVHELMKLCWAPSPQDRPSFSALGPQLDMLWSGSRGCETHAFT
T4 sequence (P23458 875-1153 limits assumed): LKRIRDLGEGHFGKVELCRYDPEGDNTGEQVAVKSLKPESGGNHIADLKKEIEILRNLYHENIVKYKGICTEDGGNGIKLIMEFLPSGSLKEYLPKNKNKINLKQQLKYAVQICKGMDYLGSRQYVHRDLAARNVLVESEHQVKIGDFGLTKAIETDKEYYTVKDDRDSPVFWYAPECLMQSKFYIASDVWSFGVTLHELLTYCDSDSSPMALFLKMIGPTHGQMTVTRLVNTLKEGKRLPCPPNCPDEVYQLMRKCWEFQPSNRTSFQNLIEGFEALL

Turning to `[2H]C1([2H])C([C@@H](CC(N)=O)n2cc(-c3ncnc4[nH]ccc34)cn2)C([2H])([2H])C([2H])([2H])C1([2H])[2H]` [Compound 10], the 50% inhibitory concentration (IC50) – broadly, the midpoint of a concentration-inhibition curve – in data set [1] came out at 368 nM; in data set [2], 226 nM; in data set [3], 34 nM; in data set [5], 63.9 nM. Further, the “Average % diff. in t1/2 (longer half-life than non-deuterated Compound 50)” value in data set [4] (Compound 10 versus Compound 50, average t1/2) was found to be 176%. Moreover, the half-life at 0.25 μM turned out to be 1.6 h in data set [4] (setting [6]), 4.5 h in data set [4] (setting [7]), 4.97 h in data set [4] (setting [8]) and 3.68 h in data set [4] (setting [9]).

For the compound `NC(=O)C[C@H](C1CCCC1)n1cc(-c2ncnc3[nH]ccc23)cn1` [Compound 50, reference compound], the half-life at 0.25 μM worked out at 0.822 h in data set [4] (setting [6]), 1.33 h in data set [4] (setting [7]), 1.87 h in data set [4] (setting [8]) and 1.33 h in data set [4] (setting [9]).
